# Results taken from patent publication US10660877B2 (BRISTOL-MYERS SQUIBB COMPANY, priority 2016, dated 2020).
# Where two headings read alike, the source gives them in different places.
# Assays:
# human TLR8 = human TLR8 (Homo sapiens (Human), UniProt Q9NR97); assay: TLR8 inhibition reporter assay (HEK-Blue cells, SEAP reporter, R848 stimulation);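 further: compounds tested from 0.05 nM to 50 µM, 22 h at 37 °C, SEAP measured with HEK-Blue Detection, inhibition relative to agonist plus DMSO versus a known inhibitor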
# Sequence of human TLR8 (Q9NR97 27-1041): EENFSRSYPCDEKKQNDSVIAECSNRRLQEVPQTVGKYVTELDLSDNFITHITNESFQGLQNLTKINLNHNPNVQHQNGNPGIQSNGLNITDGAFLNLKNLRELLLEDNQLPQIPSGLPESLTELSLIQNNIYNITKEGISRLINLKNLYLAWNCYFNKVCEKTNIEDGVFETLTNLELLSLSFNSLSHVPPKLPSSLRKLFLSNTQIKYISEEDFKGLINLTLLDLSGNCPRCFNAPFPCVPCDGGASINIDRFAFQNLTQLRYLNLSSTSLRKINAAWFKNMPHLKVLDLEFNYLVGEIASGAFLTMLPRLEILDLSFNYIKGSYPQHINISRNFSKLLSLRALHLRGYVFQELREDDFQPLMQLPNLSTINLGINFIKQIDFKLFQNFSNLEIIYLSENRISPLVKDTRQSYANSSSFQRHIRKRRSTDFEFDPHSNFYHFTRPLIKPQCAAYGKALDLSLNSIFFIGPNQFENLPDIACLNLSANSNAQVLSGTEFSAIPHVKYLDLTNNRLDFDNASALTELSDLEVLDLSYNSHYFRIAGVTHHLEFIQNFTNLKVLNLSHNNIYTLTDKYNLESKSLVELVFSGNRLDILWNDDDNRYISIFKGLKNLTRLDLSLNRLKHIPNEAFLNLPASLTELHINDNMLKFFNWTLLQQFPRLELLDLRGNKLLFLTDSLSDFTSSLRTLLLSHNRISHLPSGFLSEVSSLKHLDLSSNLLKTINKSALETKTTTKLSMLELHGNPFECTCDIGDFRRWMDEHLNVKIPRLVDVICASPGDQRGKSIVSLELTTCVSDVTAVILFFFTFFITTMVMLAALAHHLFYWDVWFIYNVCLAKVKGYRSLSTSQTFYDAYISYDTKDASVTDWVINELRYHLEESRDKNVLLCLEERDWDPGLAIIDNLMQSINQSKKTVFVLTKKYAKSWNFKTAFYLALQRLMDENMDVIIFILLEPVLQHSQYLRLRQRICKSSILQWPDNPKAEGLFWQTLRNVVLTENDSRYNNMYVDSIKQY
# human TLR9 = human TLR9 (Homo sapiens (Human), UniProt Q9NR96); assay: TLR9 inhibition reporter assay (HEK-Blue cells, SEAP reporter, ODN2006 stimulation);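 further: compounds tested over 0.05 nM to 50 µM, 22 h incubation, inhibition taken as SEAP signal drop from agonist plus DMSO wells toward a known inhibitor control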
# Sequence of human TLR9 (Q9NR96 26-1032): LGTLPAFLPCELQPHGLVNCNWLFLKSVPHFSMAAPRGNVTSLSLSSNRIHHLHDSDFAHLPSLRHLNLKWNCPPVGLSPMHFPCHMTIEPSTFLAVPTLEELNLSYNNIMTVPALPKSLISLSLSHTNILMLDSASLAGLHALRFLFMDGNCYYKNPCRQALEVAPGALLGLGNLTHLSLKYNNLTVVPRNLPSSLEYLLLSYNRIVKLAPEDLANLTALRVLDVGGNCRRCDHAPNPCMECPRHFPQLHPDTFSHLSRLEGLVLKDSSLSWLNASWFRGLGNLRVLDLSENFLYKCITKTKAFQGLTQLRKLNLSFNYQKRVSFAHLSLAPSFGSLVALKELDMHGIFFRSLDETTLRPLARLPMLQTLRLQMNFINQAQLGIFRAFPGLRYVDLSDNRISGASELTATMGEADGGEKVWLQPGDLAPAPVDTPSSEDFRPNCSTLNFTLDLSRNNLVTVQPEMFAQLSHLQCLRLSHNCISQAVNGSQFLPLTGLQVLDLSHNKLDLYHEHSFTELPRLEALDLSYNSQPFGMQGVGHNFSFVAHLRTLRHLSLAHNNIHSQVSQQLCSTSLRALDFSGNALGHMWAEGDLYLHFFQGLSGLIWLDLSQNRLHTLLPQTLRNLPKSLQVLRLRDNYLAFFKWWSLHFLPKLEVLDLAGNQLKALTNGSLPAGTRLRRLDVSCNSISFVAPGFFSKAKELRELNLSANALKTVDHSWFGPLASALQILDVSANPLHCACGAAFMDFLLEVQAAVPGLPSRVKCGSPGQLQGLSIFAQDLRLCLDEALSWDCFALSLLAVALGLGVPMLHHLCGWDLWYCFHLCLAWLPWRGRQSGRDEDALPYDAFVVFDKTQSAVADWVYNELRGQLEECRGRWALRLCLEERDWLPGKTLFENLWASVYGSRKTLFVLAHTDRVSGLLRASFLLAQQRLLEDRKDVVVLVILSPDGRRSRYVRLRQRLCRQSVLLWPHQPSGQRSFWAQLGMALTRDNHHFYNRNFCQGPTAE
# human TLR7 = human TLR7 (Homo sapiens (Human), UniProt Q9NYK1); assay: TLR7 inhibition reporter assay (HEK-Blue cells, SEAP reporter, gardiquimod stimulation); assay type: cell-based
# Sequence of human TLR7 (Q9NYK1 27-1049): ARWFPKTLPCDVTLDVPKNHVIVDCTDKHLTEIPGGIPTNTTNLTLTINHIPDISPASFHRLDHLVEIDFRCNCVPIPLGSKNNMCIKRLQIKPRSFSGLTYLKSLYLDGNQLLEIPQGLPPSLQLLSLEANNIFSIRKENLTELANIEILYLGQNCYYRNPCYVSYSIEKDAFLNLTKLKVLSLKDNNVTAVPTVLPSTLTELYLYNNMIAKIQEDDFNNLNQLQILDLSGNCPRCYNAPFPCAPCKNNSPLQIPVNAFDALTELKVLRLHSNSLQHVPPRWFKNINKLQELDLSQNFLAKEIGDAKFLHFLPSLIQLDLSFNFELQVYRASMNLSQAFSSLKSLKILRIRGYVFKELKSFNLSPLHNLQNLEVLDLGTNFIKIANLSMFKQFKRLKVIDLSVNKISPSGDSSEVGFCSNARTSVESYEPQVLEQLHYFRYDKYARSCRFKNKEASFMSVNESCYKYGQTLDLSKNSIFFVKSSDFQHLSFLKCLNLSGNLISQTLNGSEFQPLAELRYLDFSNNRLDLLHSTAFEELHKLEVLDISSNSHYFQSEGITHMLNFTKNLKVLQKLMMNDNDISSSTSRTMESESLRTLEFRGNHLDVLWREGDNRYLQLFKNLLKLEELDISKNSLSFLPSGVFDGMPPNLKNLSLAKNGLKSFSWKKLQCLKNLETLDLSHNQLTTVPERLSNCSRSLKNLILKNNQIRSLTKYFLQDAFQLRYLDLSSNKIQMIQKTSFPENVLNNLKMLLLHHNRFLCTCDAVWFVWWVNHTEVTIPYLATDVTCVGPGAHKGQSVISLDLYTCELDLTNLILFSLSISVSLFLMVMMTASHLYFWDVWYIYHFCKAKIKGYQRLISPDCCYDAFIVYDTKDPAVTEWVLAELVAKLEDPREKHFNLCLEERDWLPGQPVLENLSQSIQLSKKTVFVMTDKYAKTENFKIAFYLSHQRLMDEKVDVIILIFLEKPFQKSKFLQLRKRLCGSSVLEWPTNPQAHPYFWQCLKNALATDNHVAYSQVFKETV
# [1] = read-out: TLR8 IC50, HEK-Blue cells overexpressing human TLR8, R848 15.9 μM
# [2] = read-out: TLR9 IC50, HEK-Blue cells overexpressing human TLR9, ODN2006 5 nM
# [3] = HEK-Blue cells overexpressing human TLR7, gardiquimod 7.5 μM
# [4] = TLR8 IC50, HEK-Blue cells overexpressing human TLR8, R848 15.9 μM
# [5] = TLR9 IC50, HEK-Blue cells overexpressing human TLR9, ODN2006 5 nM
# [6] = read-out: TLR8 IC50, HEK-Blue cells, R848 15.9 μM
# [7] = read-out: TLR9 IC50, HEK-Blue cells, ODN2006 5 nM
# [8] = HEK-Blue cells, gardiquimod 7.5 μM
SMILES,IC50 (human TLR8; [1]) [nM],IC50 (human TLR9; [2]) [nM],IC50 (human TLR7; [3]) [nM],IC50 (human TLR8; [4]) [nM],IC50 (human TLR9; [5]) [nM],IC50 (human TLR8; [6]) [nM],IC50 (human TLR9; [7]) [nM],IC50 (human TLR7; [8]) [nM]
"Cc1cc(-c2[nH]c3ccc(C4CCN(S(=O)(=O)C5CC5)CC4)cc3c2C(C)C)ccn1 [Example 555, 5-(1-(cyclopropylsulfonyl)piperidin-4-yl)-3-isopropyl-2-(2-methylpyridin-4-yl)-1H-indole]",92.1,> 50000,34.9,–,–,–,–,–
"Cc1cc(-c2[nH]c3ccc(C4CCN(C(=O)CNCC5(C)CC5)CC4)cc3c2C(C)C)cc(C)n1 [Example 365, 1-(4-(2-(2,6-dimethylpyridin-4-yl)-3-isopropyl-1H-indol-5-yl)piperidin-1-yl)-2-(((1-methylcyclopropyl)methyl)amino)ethan-1-one]",–,–,6.5,22.9,854,–,–,–
"Cc1cc(-c2[nH]c3ccc(C4CCN(CC(=O)N(C)C(C)C)CC4)cc3c2C(C)C)cc(C)n1 [Example 244, 2-(4-(2-(2,6-dimethylpyridin-4-yl)-3-isopropyl-1H-indol-5-yl)piperidin-1-yl)-N-isopropyl-N-methylacetamide]",–,–,8.2,20.3,990,–,–,–
"CC(C)c1c(-c2cc(C3CC3)ncc2F)[nH]c2ccc(C3CCN(C(=O)CN(C)C)CC3)cc12 [Example 516, 1-(4-(2-(2-cyclopropyl-5-fluoropyridin-4-yl)-3-isopropyl-1H-indol-5-yl)piperidin-1-yl)-2-(dimethylamino)ethan-1-one]",190,1460,12.1,–,–,–,–,–
"CCOCCNCC(=O)N1CCC(c2ccc3[nH]c(-c4cc(C)nc(C)c4)c(C(C)C)c3c2)CC1 [Example 349, 1-(4-(2-(2,6-dimethylpyridin-4-yl)-3-isopropyl-1H-indol-5-yl)piperidin-1-yl)-2-((2-ethoxyethyl)amino)ethan-1-one]",21.9,1360,5.2,–,–,–,–,–
"Cc1cc(-c2[nH]c3ccc(C4CCN(C5CC(C)OC(C)C5)CC4)cc3c2C(C)C)cc(C)n1 (stereo not drawn) [Example 455, 2-(2,6-dimethylpyridin-4-yl)-5-(1-(2,6-dimethyltetrahydro-2H-pyran-4-yl)piperidin-4-yl)-3-isopropyl-1H-indole]",7.6,390,10.9,–,–,–,–,–
"Cc1cc(-c2[nH]c3ccc(C4CCN(C(=O)CNC(C)C)CC4)cc3c2C(C)C)cc(C)n1 [Example 344, 1-(4-(2-(2,6-dimethylpyridin-4-yl)-3-isopropyl-1H-indol-5-yl)piperidin-1-yl)-2-(isopropylamino)ethan-1-one]",8.4,485,2.5,–,–,–,–,–
"Cc1cc(-c2[nH]c3ccc(C4CCN(C(=O)c5cscn5)CC4)cc3c2C(C)C)ccn1 [Example 609, (4-(3-isopropyl-2-(2-methylpyridin-4-yl)-1H-indol-5-yl)piperidin-1-yl)(thiazol-4-yl)methanone]",214,21500,38.2,–,–,–,–,–
"Cc1cc(-c2[nH]c3ccc(C4CCN(C(C)C)CC4)cc3c2CC(F)F)cc(C)n1 [Example 536, 3-(2,2-difluoroethyl)-2-(2,6-dimethylpyridin-4-yl)-5-(1-isopropylpiperidin-4-yl)-1H-indole]",20.3,123,12.1,–,–,–,–,–
"Cc1cc(-c2[nH]c3ccc(C4CCN(C(CF)CF)CC4)cc3c2C(C)C)ccn1 [Example 865, 5-(1-(1,3-difluoropropan-2-yl)piperidin-4-yl)-3-isopropyl-2-(2-methylpyridin-4-yl)-1H-indole]",–,–,–,–,–,28.3,1030,36.7
"Cc1ncc(CN2CCC(c3ccc4[nH]c(-c5ccnc(N)c5)c(C(C)C)c4c3)CC2)[nH]1 [Example 818, 4-(3-isopropyl-5-(1-((2-methyl-1H-imidazol-5-yl)methyl)piperidin-4-yl)-1H-indol-2-yl)pyridin-2-amine]",–,–,–,–,–,53.3,230,283
"Cc1cc(-c2[nH]c3ccc(C4CCN(CC(C)(C)O)CC4)cc3c2C(C)C)cc(C)n1 [Example 848, 1-(4-(2-(2,6-dimethylpyridin-4-yl)-3-isopropyl-1H-indol-5-yl)piperidin-1-yl)-2-methylpropan-2-ol]",–,–,–,–,–,1.7,398,2.3
"Cc1cc(-c2[nH]c3cc(F)c(C4CCN(C5CCN(C(C)C)CC5)CC4)cc3c2C(C)C)ccn1 [Example 825, 6-fluoro-3-isopropyl-5-(1′-isopropyl-[1,4′-bipiperidin]-4-yl)-2-(2-methylpyridin-4-yl)-1H-indole]",–,–,–,–,–,8.1,380,6.5
"Cc1cc(-c2[nH]c3ccc(C4CCN(CC5CCNC5)CC4)cc3c2C(C)C)cc(C)n1 (stereo not drawn) [Example 466, 2-(2,6-dimethylpyridin-4-yl)-3-isopropyl-5-(1-(pyrrolidin-3-ylmethyl)piperidin-4-yl)-1H-indole]",3.7,273,6.5,–,–,–,–,–
"Cc1cc(-c2[nH]c3ccc(C4CCNCC4(F)F)cc3c2C(C)C)cc(C)n1 (single isomer, unassigned) [Example 489A, 5-(3,3-difluoropiperidin-4-yl)-2-(2,6-dimethylpyridin-4-yl)-3-isopropyl-1H-indole]",–,–,1.1,13.9,849,–,–,–
"Cc1cc(-c2[nH]c3ccc(C4CCN(C(=O)CNCC(C)(C)O)CC4)cc3c2C(C)C)cc(C)n1 [Example 375, 1-(4-(2-(2,6-dimethylpyridin-4-yl)-3-isopropyl-1H-indol-5-yl)piperidin-1-yl)-2-((2-hydroxy-2-methylpropyl)amino)ethan-1-one]",80.6,1780,13.1,–,–,–,–,–
"Cc1cc(-c2[nH]c3ccc(C4CCN(C(=O)CN(C)CCO)CC4)cc3c2C(C)C)c(F)cn1 [Example 680, 1-(4-(2-(5-fluoro-2-methylpyridin-4-yl)-3-isopropyl-1H-indol-5-yl)piperidin-1-yl)-2-((2-hydroxyethyl)(methyl)amino)ethan-1-one]",4,2970,2,–,–,–,–,–
"Cc1cc(-c2[nH]c3ccc(C4CCN(C5CCNCC5C)CC4)cc3c2C(C)C)ccn1 (stereo not drawn) [Example 709, 3-isopropyl-5-(3′-methyl-[1,4′-bipiperidin]-4-yl)-2-(2-methylpyridin-4-yl)-1H-indole]",12.6,393,32.4,–,–,–,–,–
"Cc1cc(-c2[nH]c3ccc(C4CCN(CC5(C)COC5)CC4)cc3c2C(C)C)c(C)cn1 [Example 872, 2-(2,5-dimethylpyridin-4-yl)-3-isopropyl-5-(1-((3-methyloxetan-3-yl)methyl)piperidin-4-yl)-1H-indole]",–,–,–,–,–,2.8,2320,20.6
"Cc1nccc(-c2[nH]c3ccc(C4CCNCC4)cc3c2C(C)C)c1F [Example 53, 2-(3-fluoro-2-methylpyridin-4-yl)-3-isopropyl-5-(piperidin-4-yl)-1H-indole]",1.2,2300,2.9,–,–,–,–,–
"Cc1cc(-c2[nH]c3ccc(C4CCN(CC(=O)O)CC4)cc3c2C(C)C)cc(C)n1 [Example 875, 2-(4-(2-(2,6-dimethylpyridin-4-yl)-3-isopropyl-1H-indol-5-yl)piperidin-1-yl)acetic acid]",–,–,–,–,–,248,10100,31
Cc1ccc(S(=O)(=O)N2CCC(c3ccc4[nH]c(-c5ccnc(C)c5)c(C(C)C)c4c3)CC2)cc1 [Example 554],1070,> 50000,441,–,–,–,–,–
